{"source": "PubChem BioAssay AID1259409", "about": "(Chemical Carcinogenesis Research Information System (CCRIS), 2018)", "origin": "cited, not measured here", "tested_on": "rodent chemically induced tumor inhibition, incidence and multiplicity", "assay": "CCRIS tumor inhibitor studies", "conditions": "Carcinogen: 4-(METHYLNITROSAMINO)-1-(3-PYRIDYL)-1-BUTANONE; 64091-91-4; Dose [Inhibitor]: 0; 25 UMOL IN 0.1 ML CORN OIL ONCE 2 HR PRIOR TO CARCINOGEN DOSE (STUDY DURATION: 16 WK); Route [Inhibitor]: GAVAGE; Species: MOUSE; Strain/Sex: STRAIN-A/FEMALE; Target Tissue: Type of Lesion: LUNG: TUMOR; Dose [Carcinogen]: 10 UMOL IN 0.1 ML SALINE ONCE; Promoter: NONE USED", "data": [{"smiles": "CCCCC(O)CCC(=O)c1ccccc1", "note": "(stereo unspecified)", "values": [{"measurement": "tumour outcome (control, treated, inhibition, significance)", "result": "100%, 100%, 0%, not significant"}]}]}
